In ChEMBL document CHEMBL2331091, “Synthesis and pharmacological evaluation of some novel 2-(5-hydroxy-5-trifluoromethyl-4,5-dihydropyrazol-1-yl)-4-(coumarin-3-yl)thiazoles” (2013) one finds inhibition in vivo data, which are given here for one compound.

Type in all cases: functional
Assay [1] deals with Rattus norvegicus. As to the kind of experiment: Antiinflammatory activity in Wistar albino rat assessed as inhibition of carrageenan-induced paw edema at 10 mg/kg, po administered 30 mins prior to carrageenan challenge measured after 4 hrs by plethysmometer analysis.
For assay [2], the system named is Rattus norvegicus. As to the kind of experiment: Antiinflammatory activity in Wistar albino rat assessed as inhibition of carrageenan-induced paw edema at 10 mg/kg, po administered 30 mins prior to carrageenan challenge measured after 3 hrs by plethysmometer analysis. (In general: Carrageenan injected into the paw causes an acute inflammation.)
Assay [3] has as its system Rattus norvegicus. As to the kind of experiment: Antiinflammatory activity in Wistar albino rat assessed as inhibition of carrageenan-induced paw edema at 10 mg/kg, po administered 30 mins prior to carrageenan challenge measured after 2 hrs by plethysmometer analysis.
In assay [4] the test system is Rattus norvegicus. Kind of assay: Antiinflammatory activity in Wistar albino rat assessed as inhibition of carrageenan-induced paw edema at 10 mg/kg, po administered 30 mins prior to carrageenan challenge measured after 1 hr by plethysmometer analysis.

Broadly, the inhibition in vivo is the relative decrease from the control value, in per cent. For the compound `COc1ccc2c(c1)c(CC(=O)O)c(C)n2C(=O)c1ccc(Cl)cc1` [INDOMETHACIN], the inhibition in vivo at 10 mg/kg was 86.5% in assay [1], 80.9% in assay [2], 84.2% in assay [3] and 94.4% in assay [4].
